melting point | SMILES
200 to 201 °C | Br.CN(C(=O)c1ccc(C(F)(F)F)cc1)c1ccc(Oc2cccc3cc(C(=O)N4CCN(Cc5ccc(C#N)cc5)CC4)n(C)c23)nc1 [Example 324, N-(6-{2-[4-(4-Cyanobenzyl)piperazine-1-carbonyl]-1-methyl-1H-indol-7-yloxy}pyridin-3-yl)-N-methyl-4-trifluoromethylbenzamide hydrobromide]
139 to 141 °C | COc1ccc(CN2CCN(C(=O)c3cc4c(Oc5ccc(N(C)C(=O)c6ccc(C(F)(F)F)cc6)cn5)cccc4n3C)CC2)cc1.O=C(O)C(=O)O [Example 325, N-(6-{2-[4-(4-Methoxybenzyl)piperazine-1-carbonyl]-1-methyl-1H-indol-4-yloxy}pyridin-3-yl)-N-methyl-4-trifluoromethylbenzamide oxalate]
273 to 276 °C | Br.CN(C(=O)c1ccc(C(F)(F)F)cc1)c1ccc(Oc2cccc3c2cc(C(=O)N2CCN(Cc4ccc(C#N)cc4)CC2)n3C)nc1 [Example 326, N-(6-{2-[4-(4-Cyanobenzyl)piperazine-1-carbonyl]-1-methyl-1H-indol-4-yloxy}pyridin-3-yl)-N-methyl-4-trifluoromethylbenzamide hydrobromide]
189 to 201 °C | Br.CN(C(=O)c1ccc(C(F)(F)F)cc1)c1ccc(Oc2ccc3c(c2)cc(C(=O)N2CCN(Cc4ccccc4)CC2)n3C)nc1 [Example 329, N-{6-[2-(4-Benzylpiperazine-1-carbonyl)-1-methyl-1H-indol-5-yl-oxy]pyridin-3-yl}-N-methyl-4-trifluoromethylbenzamide hydrobromide]
210 to 213 °C | Br.CN(C(=O)c1ccc(Cl)c(Cl)c1)c1ccc(Oc2ccc3c(c2)cc(C(=O)N2CCN(Cc4ccccc4)CC2)n3C)nc1 [Example 330, N-{6-[2-(4-Benzylpiperazine-1-carbonyl)-1-methyl-1H-indol-5-yl-oxy]pyridin-3-yl}-3,4-dichloro-N-methylbenzamide hydrobromide]
208 to 210 °C | Cn1c(C(=O)N2CCN(C3CCOCC3)CC2)cc2cc(Oc3ccc(NS(=O)(=O)c4ccc(Cl)c(Cl)c4)cn3)ccc21 [Example 331, 3,4-Dichloro-N-(6-{1-methyl-2-[4-(tetrahydropyran-4-yl)-piperazine-1-carbonyl]-1H-indol-5-yloxy}pyridin-3-yl)-benzenesulfonamide]
174 to 178 °C | Cn1c(C(=O)N2CCN(C3CCOCC3)CC2)cc2cc(Oc3ccc(NS(=O)(=O)c4ccc(C(F)(F)F)cc4)cn3)ccc21 [Example 332, N-(6-{1-Methyl-2-[4-(tetrahydropyran-4-yl)piperazine-1-carbonyl]-1H-indol-5-yloxy}pyridin-3-yl)-4-trifluoromethylbenzene-sulfonamide]
205 to 214 °C | Br.Cn1c(C(=O)N2CCN(Cc3ccc4c(c3)OCO4)CC2)cc2cc(Oc3ccc(NCc4ccc(Cl)c(Cl)c4)cn3)ccc21 [Example 333, (4-Benzo[1,3]dioxol-5-ylmethylpiperazin-1-yl)(5-{5-[(3,4-di-chlorophenyl)methylamino]pyridin-2-yloxy}-1-methyl-1H-indol-2-yl)methanone hydrobromide]
209 to 217 °C | Br.Cn1c(C(=O)N2CCN(Cc3ccccc3)CC2)cc2cc(Oc3ccc(NCc4ccc(Cl)c(Cl)c4)cn3)ccc21 [Example 334, (4-Benzylpiperazin-1-yl)(5-{5-[(3,4-dichlorophenyl)methylamino]-pyridin-2-yloxy}-1-methyl-1H-indol-2-yl)methanone hydrobromide]
211 to 215 °C | Br.CN(c1ccc(C(F)(F)F)cc1)c1ccc(Oc2ccc3c(c2)cc(C(=O)N2CCN(Cc4ccc5c(c4)OCO5)CC2)n3C)nc1 [Example 335, (4-Benzo[1,3]dioxol-5-ylmethylpiperazin-1-yl)(1-methyl-5-{5-[methyl(4-trifluoromethylphenyl)amino]pyridin-2-yloxy}-1H-indol-2-yl)methanone hydrobromide]
212 to 218 °C | Br.CN(c1ccc(C(F)(F)F)cc1)c1ccc(Oc2ccc3c(c2)cc(C(=O)N2CCN(Cc4ccccc4)CC2)n3C)nc1 [Example 336, (4-Benzylpiperazin-1-yl)(1-methyl-5-{5-[methyl(4-trifluoromethyl-phenyl)amino]pyridin-2-yloxyl}-1H-indol-2-yl)methanone hydrobromide]
167 to 174 °C | Br.CN(c1ccc(C(F)(F)F)cc1)c1ccc(Oc2ccc3c(c2)cc(C(=O)N2CCN(Cc4ccncc4)CC2)n3C)nc1 [Example 337, (1-Methyl-5-{5-[methyl(4-trifluoromethylphenyl)amino]pyridin-2-yloxy}-1H-indol-2-yl)(4-pyridin-4-ylmethylpiperazin-1-yl)-methanone hydrobromide]
251 to 255 °C (dec.) | Br.CN(C(=O)c1ccc(C(F)(F)F)cc1)c1ccc(Oc2ccc3c(c2)cc(C(=O)N2CCN(Cc4ccc(C#N)cc4)CC2)n3C)nc1 [Example 339, N-(6-{2-[4-(4-Cyanobenzyl)piperazine-1-carbonyl]-1-methyl-1H-indol-5-yloxy}pyridin-3-yl)-N-methyl-4-trifluoromethylbenzamide hydrobromide]
196 to 198 °C | Br.CCOc1ccc(CN2CCN(C(=O)c3cc4cc(Oc5ccc(NC(=O)c6ccc(C(F)(F)F)cc6)cn5)ccc4n3C)CC2)cc1OCC [Example 340, N-(6-{2-[4-(3,4-Diethoxybenzyl)piperazine-1-carbonyl]-1-methyl-1H-indol-5-yloxy}pyridin-3-yl)-4-trifluoromethylbenzamide hydrobromide]
213 to 216 °C | Br.CN(C(=O)c1ccc(C(F)(F)F)cc1)c1ccc(Oc2ccc3c(c2)cc(C(=O)N2CCN(Cc4ccc(OC(F)(F)F)cc4)CC2)n3C)nc1 [Example 343, N-Methyl-N-(6-{1-methyl-2-[4-(4-trifluoromethoxybenzyl)-piperazine-1-carbonyl]-1H-indol-5-yloxy}pyridin-3-yl)-4-tri-fluoromethylbenzamide hydrobromide]
179 to 183 °C | Br.CCn1c(C(=O)N2CCN(Cc3ccc4c(c3)OCO4)CC2)cc2cc(Oc3ccc(N(C)C(=O)c4ccc(C(F)(F)F)cc4)cn3)ccc21 [Example 344, N-{6-[2-(4-Benzo[1,3]dioxol-5-ylmethylpiperazine-1-carbonyl)-1-ethyl-1H-indol-5-yloxy]pyridin-3-yl}-N-methyl-4-trifluoromethyl-benzamide hydrobromide]
175 to 177 °C | Br.COc1ccc(CN2CCN(C(=O)c3cc4cc(Oc5ccc(N(C)C(=O)c6ccc(C(F)(F)F)cc6)cn5)ccc4n3C)CC2)cc1OC [Example 345, N-(6-{2-[4-(3,4-Dimethoxybenzyl)piperazine-1-carbonyl]-1-methyl-1H-indol-5-yloxy}pyridin-3-yl)-N-methyl-4-trifluoromethyl-benzamide hydrobromide]
171 to 172 °C | COc1ccc(CN2CCN(C(=O)c3cc4cc(Oc5ccc(N(C)C(=O)c6ccc(Cl)c(Cl)c6)cn5)ccc4n3C)CC2)cc1.O=C(O)/C=C\C(=O)O [Example 347, 3,4-Dichloro-N-(6-{2-[4-(4-methoxybenzyl)piperazine-1-carbonyl]-1-methyl-1H-indol-5-yloxy}pyridin-3-yl)-N-methylbenzamide maleate]
135 to 138 °C | COc1ccc(CN2CCN(C(=O)c3cc4cc(Oc5ccc(NC(=O)c6ccc(C(F)(F)F)cc6)cn5)ccc4n3C)CC2)cn1.O=C(O)/C=C\C(=O)O [Example 348, N-(6-{2-[4-(6-Methoxypyridin-3-ylmethyl)piperazine-1-carbonyl]-1-methyl-1H-indol-5-yloxy}pyridin-3-yl)-4-trifluoromethylbenzamide maleate]
244 to 247 °C (dec.) | Br.COc1ccc(CN2CCN(C(=O)c3cc4cc(Oc5ccc(NC(=O)c6ccc(Cl)c(Cl)c6)cn5)ccc4n3C)CC2)cc1 [Example 349, 3,4-Dichloro-N-(6-{2-[4-(4-methoxybenzyl)piperazine-1-carbonyl]-1-methyl-1H-indol-5-yloxy}pyridin-3-yl)benzamide hydrobromide]
233 to 235 °C | Br.COc1ccc(CN2CCN(C(=O)c3cc4cc(Oc5ccc(NC(=O)c6ccc(C(F)(F)F)cc6)cn5)ccc4n3C)CC2)cc1OC [Example 350, N-(6-{2-[4-(3,4-Dimethoxybenzyl)piperazine-1-carbonyl]-1-methyl-1H-indol-5-yloxy}pyridin-3-yl)-4-trifluoromethylbenzamide hydrobromide]
217 to 219 °C | Br.COc1cccc(CN2CCN(C(=O)c3cc4cc(Oc5ccc(N(C)C(=O)c6ccc(C(F)(F)F)cc6)cn5)ccc4n3C)CC2)c1 [Example 351, N-(6-{2-[4-(3-Methoxybenzyl)piperazine-1-carbonyl]-1-methyl-1H-indol-5-yloxy}pyridin-3-yl)-N-methyl-4-trifluoromethylbenzamide hydrobromide]
231 to 233 °C | Br.COc1cccc(CN2CCN(C(=O)c3cc4cc(Oc5ccc(NC(=O)c6ccc(C(F)(F)F)cc6)cn5)ccc4n3C)CC2)c1 [Example 353, N-(6-{2-[4-(3-Methoxybenzyl)piperazine-1-carbonyl]-1-methyl-1H-indol-5-yloxy}pyridin-3-yl)-4-trifluoromethylbenzamide hydrobromide]
142 to 144 °C | COc1ccccc1CN1CCN(C(=O)c2cc3cc(Oc4ccc(NC(=O)c5ccc(C(F)(F)F)cc5)cn4)ccc3n2C)CC1.O=C(O)C(=O)O [Example 354, N-(6-{2-[4-(2-Methoxybenzyl)piperazine-1-carbonyl]-1-methyl-1H-indol-5-yloxy}pyridin-3-yl)-4-trifluoromethylbenzamide oxalate]
140 to 142 °C | COc1ccccc1CN1CCN(C(=O)c2cc3cc(Oc4ccc(N(C)C(=O)c5ccc(C(F)(F)F)cc5)cn4)ccc3n2C)CC1.O=C(O)C(=O)O [Example 355, N-(6-{2-[4-(2-Methoxybenzyl)piperazine-1-carbonyl]-1-methyl-1H-indol-5-yloxy}pyridin-3-yl)-N-methyl-4-trifluoromethylbenzamide oxalate]
268 to 271 °C (dec.) | COc1ccccc1/C=C/CN1CCN(C(=O)c2cc3cc(Oc4ccc(NC(=O)c5ccc(C(F)(F)F)cc5)cn4)ccc3n2C)CC1.CS(=O)(=O)O [Example 358, N-[6-(2-{4-[(E)-3-(2-Methoxyphenyl)allyl]piperazine-1-carbonyl}-1-methyl-1H-indol-5-yloxy)pyridin-3-yl]-4-trifluoromethyl-benzamide methanesulfonate]

— patent publication US8551999B2, “Heterocyclic compound and pharmaceutical composition thereof” (Otsuka Pharmaceutical Co., Ltd., priority 2007, dated 2013)
